# Experimental data as given in patent US5625044A, “Methods for the preparation of pure homologous series of mono to tetra fatty acyl esters of sugars and pharmaceutical formulations useful in the treatment of cancer” (Goudreau Gage Dubec & Martineau, priority 1994, dated 1997).
# “Also recorded” adds a separate entry of the source.
# Tests used:
# [1] = Tolerance and immunosuppression of angiostatic steroids
# Experimental: The doses were: 150 mg/kg of body weight/day for the first two days, 125 mg/kg of body weight/day for the next two days, 100 mg/kg of body weight/day for the next two days, and then a maintenance dose of 75 mg/kg of body weight/day was used for the remaining duration of the treatment, for a total of 20-25 days. […] Therefore, the dosage rate of steroids might also be adjusted, according to the patients' response, which is left to the clinician;
# [2] = in vivo; cited from earlier work
# C3HBA = experiment: Antitumor activity of maltose palmitates against C3HBA fragment implanted s.c. in C3H/HeN females; format: in vivo, C3H/HeN mice; settings: ip. 3 times weekly, 10 μg (individual palmitates)
# Source text: The scientific and patent literature on tri-fatty acyl disaccharides is non existent. This compound has not been obtained as a single entity. The compound forms complexes and rarely appeared as a pure band in our investigations. However, when the mixture is subjected to HPLC as described in I, we obtain sufficient quantities of di, tri and tetra palmitates. This allowed us to test each of these components individually and in combinations. Briefly, the following results were obtained using C3HBA fragment implanted s.c. in C3H/HeN females.
# tumor cells = experiment: Antitumor activity of individual maltose palmitates (summary statements); format: in vivo; settings: comparison of maltose palmitates
# [3] = Degradation of labelled maltose palmitates in tissues (14C/3H ratio of ethanolic extract); parameters: species or system mice; settings: mouse, in vivo
# Experimental: The ^3 H-palmitoyl chloride and the ^14 C-maltose (as prepared earlier) were mixed in a total volume of 500 μl of dimethyl formamide (DMF). To the mixture was added 100 μl pyridine and the contents were heated for 14 h at 60° C. in a nitrogen atmosphere. The product was then evaporated under reduced pressure at 60° C. to remove the solvents. It was dissolved in 400 μl of absolute ethanol. Pyridine hydrochloride was removed by adding the dissolved crude reaction product to 1 ml ice cold water in an Eppendorf tube. The resulting suspension was centrifuged at 4° C. for 10 min and the supernatant was discarded. The product was dried for 48 hours in a vacuum desiccator and then was extracted with three 10 μl portions of methanol at room temperature. The methanol extract was subjected to reverse phase HPLC using a methanol eluent and detection at 214 nm at a flow rate of 0.5 ml/min and a 3.9 mn×15 cm Waters Resolve C18 5μ column. Two components eluting at 19.1 and 24.1 min which corresponded to the two isomers of maltose tetrapalmitate were collected. […] The tissue extracts were analyzed for ^3 H and ^14 C for non metabolized MTP and its degradation products by scintillation counting. […]
# The ratio of degradation calculated on the basis of slope of ^14 C/^3 H ratio between 24 h and 48 h, in ethanolic extract indicated the following order of degradation, with liver taken as 100: […]
# [4] = system: cultured endothelial cells; format: in vitro ADME
# Naik As cells = experiment: In vitro growth inhibition of angiosarcoma cell line Naik-AS; format: cell-based
# Source text: The in vitro growth of an angiosarcoma cell line (Naik-AS) developed by us was studied in the presence and absence of maltose tri- and tetrapalmitates.
# [5] = rodents, 150 down to 75 mg/kg of body weight/day, 20-25 days
smiles,measurement,setting,value
CC(=O)[C@@]1(O)CC[C@H]2[C@@H]3CCC4=CC(=O)CC[C@]4(C)[C@H]3CC[C@@]21C [17-β-OH progesterone],tolerance at high doses,[1]; [5],rodents tolerate them
C[C@]12CCC(=O)C=C1CC[C@@H]1[C@@H]2CC[C@@]2(C)[C@H]1CC[C@]2(O)C(=O)CO [cortexolone],tolerance at high doses,[1]; in vivo,rodents tolerate them
C[C@]12CCC(=O)C=C1CC[C@@H]1[C@@H]2[C@@H](O)C[C@@]2(C)[C@H]1CC[C@]2(O)C(=O)CO [hydrocortisone],immunosuppression,[2],"at high doses, it is immunosuppressive; also recorded: highly immunosuppressive"
same,tolerance at high doses,[1]; [5],rodents tolerate them
"CCCCCCCCCCCCCCCC(=O)OC[C@H]1O[C@H](O[C@H]2[C@H](O)[C@@H](O)C(OC(=O)CCCCCCCCCCCCCCC)O[C@@H]2COC(=O)CCCCCCCCCCCCCCC)[C@H](O)[C@@H](O)[C@@H]1O (stereo partly shown) [maltose tripalmitate, maltose 1, 6, 6' tri palmitate]",Day of tumor appearance after implantation,C3HBA,14 to 16 days
same,"antitumor activity, in words",tumor cells,most active component
same,"retention time in tissues / degradation, in words",[3],followed by maltose tripalmitate
same,degradation by cultured endothelial cells,[4],Degradation also occurred
same,% Inhibition of growth of Naik As cells in culture,"Naik As cells; 5 μg/ml, 30 hours",30%
same,% Inhibition of growth of Naik As cells in culture,"Naik As cells; 5 μg/ml, 60 hours",17%
same,% Inhibition of growth of Naik As cells in culture,"Naik As cells; 5 μg/ml, 105 hours",10%
same,% Inhibition of growth of Naik As cells in culture,"Naik As cells; .625 μg/ml, 30 hours",25%
same,% Inhibition of growth of Naik As cells in culture,"Naik As cells; .625 μg/ml, 60 hours",11%
same,% Inhibition of growth of Naik As cells in culture,"Naik As cells; .625 μg/ml, 105 hours",4%
same,"in vitro growth of angiosarcoma cell line (Naik-AS), in words",Naik As cells; time course in words,inhibited growth on the first 30 hours which response declined as it got degraded
C[C@]12CC[C@@H](O)C[C@H]1CC[C@@H]1[C@@H]2CC[C@@]2(C)[C@H]1CC[C@]2(O)C(=O)CO [tetra hydro S],tolerance at high doses,[1]; [5],rodents tolerate them
